What was measured:
[1] = target: T1, human cloned CHRM3 receptor (M3_CHO cells) (Homo sapiens, UniProt P20309); experiment: CHRM3 Ca++ Flux Assay (agonist mode, FDSS 7000EX); assay type: cell-based; details: for Emax: Percent Activity measured to EC100 of Carbachol, read-out: M3 FDSS PA; for EC50: agonist mode, geometric mean if tested more than once, read-out: M3 FDSS EC50
T1 construct: expressed in transfected cells; host or cells: CHO-K1
How it was run: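 CHO-K1 cells stably expressing human M3 or M5 receptor were dye-loaded for at least 1 h in HBSS with 20 mM HEPES and 2.5 mM probenecid, then given 11-point compound doses in triplicate.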

[2] = target: T2, human cloned CHRM4 receptor (M4_CHO cells) (Homo sapiens, UniProt P08173); experiment: CHRM4 Ca++ Flux Assay (agonist mode, FDSS 7000EX); assay type: cell-based; details: for Emax: Percent Activity, read-out: M4 FDSS PA; for EC50: geometric mean if tested more than once, read-out: M4 FDSS EC50
T2 construct: expressed in transfected cells; host or cells: CHO-K1
T2 sequence (P08173 1-479): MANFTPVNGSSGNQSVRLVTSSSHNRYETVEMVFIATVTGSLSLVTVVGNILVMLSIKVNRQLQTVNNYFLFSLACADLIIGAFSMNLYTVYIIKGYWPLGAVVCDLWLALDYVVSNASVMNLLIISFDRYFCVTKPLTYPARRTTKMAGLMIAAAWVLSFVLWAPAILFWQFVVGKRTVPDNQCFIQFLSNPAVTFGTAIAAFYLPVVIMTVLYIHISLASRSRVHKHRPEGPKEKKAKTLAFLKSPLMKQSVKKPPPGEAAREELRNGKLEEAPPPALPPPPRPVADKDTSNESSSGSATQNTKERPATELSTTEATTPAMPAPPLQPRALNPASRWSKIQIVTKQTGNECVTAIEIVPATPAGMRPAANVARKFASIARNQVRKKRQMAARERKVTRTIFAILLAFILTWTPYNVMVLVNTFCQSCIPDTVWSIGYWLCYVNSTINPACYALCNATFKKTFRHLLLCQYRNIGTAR
How it was run: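 M4_CHO cells loaded with a Ca++ dye for at least 1 h were held 60 min at room temperature in HEPES/probenecid buffer with 20 μM ATP. Ca++ flux after an 11-point compound dose, in triplicate and agonist mode, was recorded over 3 min. Four-parameter fits gave curves, with activity expressed relative to the Carbachol EC100.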

T1 sequence (P20309 whole entry): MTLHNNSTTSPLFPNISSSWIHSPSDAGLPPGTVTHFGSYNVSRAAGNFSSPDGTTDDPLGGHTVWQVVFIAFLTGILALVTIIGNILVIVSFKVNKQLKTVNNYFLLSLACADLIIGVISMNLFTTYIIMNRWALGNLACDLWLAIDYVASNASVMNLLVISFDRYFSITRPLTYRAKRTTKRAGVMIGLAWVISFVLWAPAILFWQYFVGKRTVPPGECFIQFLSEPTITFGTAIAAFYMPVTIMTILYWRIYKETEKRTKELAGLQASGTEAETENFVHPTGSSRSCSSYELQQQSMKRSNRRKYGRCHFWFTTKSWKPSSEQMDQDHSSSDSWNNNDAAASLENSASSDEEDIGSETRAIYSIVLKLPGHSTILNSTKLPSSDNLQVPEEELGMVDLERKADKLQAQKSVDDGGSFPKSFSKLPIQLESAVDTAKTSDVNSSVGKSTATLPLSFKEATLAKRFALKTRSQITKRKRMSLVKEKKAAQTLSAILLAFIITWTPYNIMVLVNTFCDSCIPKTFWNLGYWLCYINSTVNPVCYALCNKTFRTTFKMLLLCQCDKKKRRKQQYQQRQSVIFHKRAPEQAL

| Compound | Emax [1] | EC50 [1] | Emax [2] | EC50 [2] |
| --- | --- | --- | --- | --- |
| CC(C)(O)CCOc1ccccc1C1CCN([C@@H]2CCC3(C2)CN(C(=O)C2COC2)C3)CC1 [Example 7CC, (R)-(6-(4-(2-(3-hydroxy-3-methylbutoxy)phenyl)piperidin-1-yl)-2-azaspiro[3.4]octan-2-yl)(oxetan-3-yl)methanone] | 0% | > 25000 nM | 46% | 5 nM |
| Fc1cccc(C2CCN([C@@H]3CCC4(C3)CN(c3nncs3)C4)CC2)c1OC1COC1 [Example 3E, (R)-2-(6-(4-(3-fluoro-2-(oxetan-3-yloxy)phenyl)piperidin-1-yl)-2-azaspiro[3.4]octan-2-yl)-1,3,4-thiadiazole] | 0% | > 25000 nM | 87% | 3 nM |
| COc1ccccc1C1CCN([C@@H]2CCC3(C2)CN(c2ccns2)C3)CC1 [Example 3I, (R)-5-(6-(4-(2-methoxyphenyl)piperidin-1-yl)-2-azaspiro[3.4]octan-2-yl)isothiazole] | 0% | > 25000 nM | 70% | 1 nM |
| CC(C)(O)COc1ccccc1C1CCN([C@@H]2CCC3(C2)CN(c2nncs2)C3)CC1 [Example 3G, (R)-1-(2-(1-(2-(1,3,4-thiadiazol-2-yl)-2-azaspiro[3.4]octan-6-yl)piperidin-4-yl)phenoxy)-2-methylpropan-2-ol] | 0% | > 25000 nM | 57% | 7 nM |
| CC(C)(O)COc1ccccc1C1CCN([C@@H]2CCC3(C2)CN(c2nnco2)C3)CC1 [Example 2A, (R)-1-(2-(1-(2-(1,3,4-oxadiazol-2-yl)-2-azaspiro[3.4]octan-6-yl)piperidin-4-yl)phenoxy)-2-methylpropan-2-ol] | 0% | > 25000 nM | 69% | 10 nM |
| c1ccc(C2CCN([C@@H]3CCC4(C3)CN(c3nncs3)C4)CC2)c(OC[C@@H]2COCCO2)c1 [Example 3C, 2-((R)-6-(4-(2-(((S)-1,4-dioxan-2-yl)methoxy)phenyl)piperidin-1-yl)-2-azaspiro[3.4]octan-2-yl)-1,3,4-thiadiazole] | 0% | > 25000 nM | 66% | 2 nM |
| c1ccc(C2CCN([C@@H]3CCC4(C3)CN(c3nnco3)C4)CC2)c(OC[C@@H]2COCCO2)c1 [Example 1E, 2-((R)-6-(4-(2-(((S)-1,4-dioxan-2-yl)methoxy)phenyl)piperidin-1-yl)-2-azaspiro[3.4]octan-2-yl)-1,3,4-oxadiazole] | 0% | > 25000 nM | 72% | 1 nM |
| COc1ccccc1C1CCN([C@@H]2CCC3(C2)CN(c2cnc(C)cn2)C3)CC1 [Example 5DD, (R)-6-(4-(2-methoxyphenyl)piperidin-1-yl)-2-(5-methylpyrazin-2-yl)-2-azaspiro[3.4]octane] | 0% | > 25000 nM | 26% | 82 nM |
| c1ccc(C2CCN([C@@H]3CCC4(C3)CN(c3nnco3)C4)CC2)c(-c2ncco2)c1 [Example 2M, (R)-2-(6-(4-(2-(oxazol-2-yl)phenyl)piperidin-1-yl)-2-azaspiro[3.4]octan-2-yl)-1,3,4-oxadiazole] | 0% | > 25000 nM | 82% | 6 nM |

Further lines, results first:

| Emax [1] | EC50 [1] | Emax [2] | EC50 [2] | Compound |
| --- | --- | --- | --- | --- |
| 0% | > 25000 nM | 55% | 7 nM | O=C(C1COC1)N1CC2(CC[C@@H](N3CCC(c4ccccc4OCC4CC4)CC3)C2)C1 [Example 7I, (R)-(6-(4-(2-(cyclopropylmethoxy)phenyl)piperidin-1-yl)-2-azaspiro[3.4]octan-2-yl)(oxetan-3-yl)methanone] |
| 0% | > 25000 nM | 76% | 9 nM | CC(C)Oc1ccccc1C1CCN([C@@H]2CCC3(C2)CN(C(=O)C2COC2)C3)CC1 [Example 7K, (R)-(6-(4-(2-isopropoxyphenyl)piperidin-1-yl)-2-azaspiro[3.4]octan-2-yl)(oxetan-3-yl)methanone] |

— patent publication US12122761B2, “2-azaspiro[3.4]octane derivatives as M4 agonists” (NOVARTIS AG, priority 2019, dated 2024)
